Measurements: PubChem BioAssay AID1996
Values after ≈ are worked out from the molar mass of the structure shown.

conditions: buffer; pH 7.4; 200.0 µM

Row | Structure (SMILES) | solubility kinetic [µg/mL]
1 | CCCc1cc(C(=O)Nc2ccc(CC)cc2)no1 | 1.4 (≈ 5.42 µM)
2 | CCCCNC(=O)Nc1nc2ccc(CC)cc2s1 | 0.7 (≈ 2.52 µM)
3 | C/C=C/n1ccnc1CC(O)(c1ccccc1)c1ccc(C)cc1 (centres undefined) | 3.3 (≈ 10.4 µM)
4 | COc1ccc(C(=O)NCC2OCCc3ccccc32)cc1OC (centres undefined) | 11.8 (≈ 36 µM)
5 | O=C(NCc1ccc(Cl)cc1)N1CCN(Cc2ccccc2)CC1 | > 51.6
6 | COc1ccccc1N1CCNCC1.Cl | 28.2
7 | COc1ccccc1C/C(N)=N/OC(=O)c1cccs1 | 42.8 (≈ 147 µM)
8 | c1ccc(-c2nc3ccccc3[nH]2)cc1 | 21.9 (≈ 113 µM)
9 | CC(C)(C)P(=O)(N1CCOCC1)N1CCOCC1 | > 41.4
10 | C=CCn1cccc(C(=O)Nc2ccc(SC)cc2)c1=O | 38.5 (≈ 128 µM)
11 | CNS(=O)(=O)c1cc(Cl)ccc1Sc1ccccc1C(=O)O | > 53.7
12 | CC(C)[C@H](NC(=O)c1ccccc1F)C(=O)OCC(=O)Nc1sccc1C(N)=O | > 63.2
13 | CCOCCCNCc1cc(Cl)cc(Cl)c1OCC.Cl | 44
14 | CCOC(=O)C1(Cc2ccccc2)CCCN(Cc2ccncc2)C1 (centres undefined) | 31.3 (≈ 92.5 µM)
15 | COC(=O)c1ccc(C2Nc3cccc4cccc(c34)N2)cc1 | 3.5 (≈ 11.5 µM)
16 | CCNS(=O)(=O)c1ccc(NC(=S)N2CCc3ccccc32)cc1 | 1.2 (≈ 3.32 µM)
17 | O=c1c2c3c(sc2nc2n1CCCCC2)C(O)CCC3 (centres undefined) | > 43.6
18 | CC(C)[N+]1=C2C=CC=CC=C2SC12C([N+](=O)[O-])=CC(=[N+]([O-])[O-])C=C2[N+](=O)[O-] (centres undefined) | 1.3 (≈ 3.33 µM)
19 | CCn1cnc2c1c(=O)[nH]c(=O)n2Cc1ccccc1 | 34.6 (≈ 128 µM)
20 | Cc1sc2nc(-c3cccs3)oc(=O)c2c1C | < 0.6
21 | CCOc1ccccc1C(=O)NC(C)CCc1ccccc1 (centres undefined) | 22.2 (≈ 74.6 µM)
22 | COc1ccc(CC(=O)NCC(=O)NC(Cc2ccccc2)C(=O)O)cc1 (centres undefined) | > 55.6
23 | CCCNC(=O)[C@H](C)NC(=O)c1ccc(Br)cc1 | > 47
24 | CC(=O)c1c(O)c2ccccc2n(C(C)C)c1=O | 29.7 (≈ 121 µM)
25 | O=S(=O)(Nc1cccc2ccccc12)c1cccs1 | 5.1 (≈ 17.6 µM)

Row | Structure (SMILES) | solubility kinetic [µg/mL]
26 | Cc1ccc(S(=O)(=O)NCCN2CCNC2=O)cc1 | 38.5 (≈ 136 µM)
27 | CCN(CC(=O)NCc1cccs1)C(=O)c1ccc(S(=O)(=O)N(C)c2ccccc2)cc1 | > 70.7
28 | CC#CC(=O)NC1CCCN(C2Cc3ccccc3C2)C1 (centres undefined) | > 42.4
29 | O=C(Cc1cccs1)NCc1cc(Cl)cc(Cl)c1 | 34.3 (≈ 114 µM)
30 | Cc1ccc(C)c(Nc2nc(-c3cccnc3)cs2)c1 | 0.9 (≈ 3.2 µM)
31 | COc1cccc(NC(=S)NCc2ccccc2)c1 | > 40.9
32 | CCc1noc(C)c1C(=O)NCCc1ccc(Cl)cc1 | > 43.9
33 | O=C(COC(=O)c1cc(=O)[nH]c2ccccc12)NCc1ccccc1 | 20.8 (≈ 61.8 µM)
34 | Cc1ccc(OCCn2cc(C=O)c3ccccc32)cc1 | 5.3 (≈ 19 µM)
35 | COc1cc(NC(=O)C[n+]2ccc(C(=O)c3ccccc3)cc2)cc(OC)c1.[Cl-] | > 61.9
36 | C=CCn1c(Oc2ccccc2F)nc2c1c(=O)n(C)c(=O)n2C | > 49.5
37 | COc1ccccc1OCC#CCn1ccnc1.O=C(O)C(=O)O | > 49.8
38 | Cc1ccc(C)c(NC(=O)CSc2nccn2Cc2ccco2)c1 | > 51.2
39 | O=C(OCC(=O)N1CCCCC1)c1ccc2ccccc2n1 | > 44.7
40 | Cc1cc(C)c(S(=O)(=O)NCc2ccccn2)cc1C | > 43.6
41 | Fc1ccccc1NC(=S)NCc1ccccc1 | 36.1 (≈ 139 µM)
42 | Cl.Nc1nc2cc3ccccc3cc2[nH]c1=O | 5.2
43 | CCC1CCc2sc(C(=O)NCC3CCCO3)cc2C1 (centres undefined) | 42.3 (≈ 144 µM)
44 | O=C(CN1C(=O)NC2(CCCCCC2)C1=O)NCc1ccc(Cl)cc1 | 23.5 (≈ 64.6 µM)
45 | Fc1ccc(C2Nc3cccc4cccc(c34)N2)cc1 | 3.2 (≈ 12.1 µM)
46 | O=C(O)CSc1nc2ccccc2n1-c1ccccc1 | > 42.6
47 | O=C(CSc1nncs1)Nc1nccs1 | > 38.7
48 | O=C(Nc1ccccc1N1CCOCC1)c1ccc([N+](=O)[O-])s1 | 4.6 (≈ 13.8 µM)
49 | CSc1nc(-c2ccccc2)cc(C)c1C#N | < 0.3
